In patent US20200331950A1, “SGLTS INHIBITOR AND APPLICATION THEREOF” (SHANDONG DANHONG PHARMACEUTICAL CO., LTD., priority 2018, published 2020):
Marks after values point to notes of the source that are not given here.

How the values were obtained:
[1] = In vivo pharmacokinetics in rats; settings: male SD rats; for Oral DNAUC (AUCPO/Dose) / bioavailability: oral 2 mg/kg; for clearance / half-life / Vd / bioavailability / Cmax: rat, plasma; for clearance / half-life / Vd / Cmax: intravenous 1 mg/kg or oral 2 mg/kg; for clearance: read-out: Cl (clearance rate); for half-life: read-out: T1/2 (half-life) (converted); for Vd: read-out: Vdss (distribution volume); for bioavailability: intravenous 1 mg/kg, read-out: F % (oral bioavailability); for Cmax: single administration
Source text: Study on the In Vivo Pharmacokinetics in Rats
The purpose of the experiment: Male SD rats were used as test animals and were given a single administration to determine the plasma concentration of the compound and evaluate the pharmacokinetic behavior.
Experimental method: Six healthy adult male SD rats were divided into 2 groups, with 3 rats in an intravenous injection group and 3 rats in an oral administration group. In the intravenous injection group, the test compound was mixed with an appropriate amount of vehicle (10% N-methyl pyrrolidone (NMP)/10% polyethylene glycol-15 hydroxystearate (available from solutol)/80% water), then vortexed and sonicated to prepare 0.2 mg/mL clear solution, which was filtered by microporous membrane. In the oral administration group, 10% N-methyl pyrrolidone (NMP)/10% polyethylene glycol-15 hydroxy stearate (available from solutol)/80% water was used as a vehicle and mixed with the test compound, then vortexed and sonicated to prepare 0.40 mg/mL clear solution. The rats were given intravenous administration at a dose of 1 mg/kg or oral administration at a dose of 2 mg/kg. Whole blood was collected at a certain period of time to prepare the plasma. The drug concentration of the plasma was analyzed by LC-MS/MS method, and the pharmacokinetic parameters were calculated using Phoenix WinNonlin software (Pharsight Company, USA).

SD rats [2] = experiment: Oral glucose tolerance test (OGTT) in rats, first time; format: in vivo; settings: first study, male SD rats, 10 mg/kg single intragastric administration; for OGTT blood glucose level AUC0-2 hr: glucose 2 g/kg; for Urine glucose level / Urine volume: urine 0-24 h
Protocol: Experimental Example 3. Study on In Vivo Efficacy of Oral Glucose Tolerance Test (OGTT) in Rats: Study on the In Vivo Efficacy of Oral Glucose Tolerance Test (OGTT) in Rats for the First Time
(§1) The experimental animals were allowed to adapt to the environment in the animal room for one week after they arrived.
(§2) The animals fasted in the metabolic cage for 18 hours, then were given drugs or vehicle (2 ml/kg) according to the above table, and subsequently were immediately given 50% glucose solution (2 g/kg, 4 ml/kg).
(§3) 2 hours after the administration of glucose solution, feed intake was restored. Blood samples were taken at 0 min, 15 min, 30 min, 45 min, 60 min and 120 min respectively, and urine samples were collected at 0-24 h to test blood glucose, urine glucose (mg/200 g) and urine volume respectively.
(§4) All values are represented as averages. Statistical analysis was performed using Graphpad Prism 6 one-way analysis of variance and Tukey's multiple comparison test. P value of less than 0.05 is considered statistically significant.

db/db mice [3] = experiment: Random blood glucose in diabetic db/db mice; format: in vivo; settings: mean±S.E.M.
Protocol: (§5) Experimental Example 4: Study on the In Vivo Pharmacodynamics in Diabetic Db/Db Mice
(§6) The animals were kept in an animal breeding room with strictly controlled environmental conditions after they arrived. The animal breeding room was maintained at a temperature of 20-24° C. and a humidity of 40-70%. The temperature and humidity in the feeding room were monitored in real time by a hygrothermograph, and the temperature and humidity were recorded twice daily (one in the morning and the other in the afternoon). The lighting of the animal feeding room was controlled by an on-off electronic timing system, with lights for 12 hours and dark for 12 hours daily (turned on at 7:00 a.m. and turned off at 19:00 p.m). The mice were raised in separate cages and were given free access to feed (reproductive feed 17053113 for rats and mice, available from Beijing Keao Xieli Feed Co., Ltd.) and water during the experiment.
(§7) During the experiment, the animals were administrated with the corresponding vehicles or drugs according to the group with an administration time of 16:00 and an administration period of 8 weeks.
(§8) The dose was 5 mg/kg from week 1 to week 4; and the dose was 10 mg/kg from week 5 to week 8.
(§9) Random and fasting blood glucose levels were measured once a week.
The random blood glucose level was measured at 10:00 a.m.
(§10) All of the data were entered into an Excel document and expressed in the form of mean±S.E.M. The differences between groups were compared using graphpad Prism 6 software and one-way analysis of variance (ANOVA). P value of less than 0.05 is considered a significant difference.

db/db mice [4] = experiment: Fasting blood glucose in diabetic db/db mice; format: in vivo; settings: fasted from 10:00, mean±S.E.M.
Protocol: as §5, §6, §7, §8, §9
Fasting blood glucose test: The mice fasted from 10:00 a.m., and blood glucose level was firstly measured at 16:00. Then the mice were administered with the drugs, and 2 hours later blood glucose level was measured again, and then feed intake was restored.
as §10

db/db mice [5] = experiment: Oral glucose tolerance test (OGTT) at week 8 in diabetic db/db mice; format: in vivo; settings: 5 mg/kg weeks 1-4, 10 mg/kg weeks 5-8, once daily, fasted 6 hours, glucose 2 g/kg, mean±S.E.M.
Protocol: as §5, §7, §8
At the end of the experiment (i.e. the last 3 days of administration), the animals fasted for 6 hours, then were given a single administration of glucose aqueous solution at a dose of 2 g/kg. The time of the glucose administration was recorded as 0 min. Blood glucose levels of the animals were detected at 0 min before the glucose administration, and 15 min, 30 min, 90 min and 120 min after the glucose administration, respectively. The glucose tolerance curve was drawn according to the data of blood glucose levels vs time, and the area under the curve (AUC) was calculated. The administration was given at 16:00.
as §10

db/db mice [6] = experiment: Glycosylated hemoglobin (HbA1c) in diabetic db/db mice; format: in vivo; settings: for HbA1c (%): fasted 6 hours; for Rate of Decline of HbA1c (%): vs. vehicle control group
Protocol: as §5, §7, §8
At weeks 4 and 8 of the experiment, the animals fasted for 6 hours, and blood samples were collected to measure glycosylated hemoglobin.
as §10

SD rats [7] = experiment: Oral glucose tolerance test (OGTT) in rats, second time; format: in vivo; settings: second study, male SD rats, 10 mg/kg single intragastric administration
Protocol: Study on the In Vivo Efficacy of Oral Glucose Tolerance Test (OGTT) in Rats for the Second Time:
as §1, §2, §3, §4

[8] = Week 1, 5 mg/kg intragastric once daily
[9] = Week 2, 5 mg/kg intragastric once daily
[10] = Week 3, 5 mg/kg intragastric once daily
[11] = Week 4, 5 mg/kg intragastric once daily
[12] = Week 5, 10 mg/kg intragastric once daily (5 mg/kg weeks 1-4)
[13] = Week 6, 10 mg/kg intragastric once daily (5 mg/kg weeks 1-4)
[14] = Week 7, 10 mg/kg intragastric once daily (5 mg/kg weeks 1-4)
[15] = Week 8, 10 mg/kg intragastric once daily (5 mg/kg weeks 1-4)
[16] = Week 8, 5 mg/kg weeks 1-4, 10 mg/kg weeks 5-8, once daily

| SMILES | Oral DNAUC (AUCPO/Dose) [1] [nM · h/mpk] | clearance [1] [mL/min/kg] | half-life [1] [h] | Vd [1] [L/kg] | bioavailability [1] [%] | Cmax [1] [nM] | OGTT blood glucose level AUC0-2 hr (SD rats [2]) [mmol/L/min] | Urine glucose level (SD rats [2]) | Urine volume (SD rats [2]) | Random blood glucose (db/db mice [3]; [8]) | Random blood glucose (db/db mice [3]; [9]) | Random blood glucose (db/db mice [3]; [10]) | Random blood glucose (db/db mice [3]; [11]) | Random blood glucose (db/db mice [3]; [12]) | Random blood glucose (db/db mice [3]; [13]) | Random blood glucose (db/db mice [3]; [14]) | Random blood glucose (db/db mice [3]; [15]) | Fasting blood glucose (db/db mice [4]; [8]) | Fasting blood glucose (db/db mice [4]; [9]) | Fasting blood glucose (db/db mice [4]; [10]) | other results |
| --- | --- | --- | --- | --- | --- | --- | --- | --- | --- | --- | --- | --- | --- | --- | --- | --- | --- | --- | --- | --- | --- |
| CS[C@H]1OC(c2ccc(Cl)c(Cc3ccc(C4=CCC(F)(F)CC4)cc3)c2)[C@H](O)[C@@H](O)[C@@H]1O (stereo partly drawn) [WXD001] | 1823 | 10.1 | 4.59 | 3.86 | 59 | 410 | 832 | 2181.4**** mg/200 g, BW | 37.58**** mL/200 gBW | – | – | – | – | – | – | – | – | – | – | – | – |
| CS[C@H]1O[C@@H](c2ccc(C)c(Cc3ccc(C4=CCC(F)(F)CC4)cc3)c2)[C@H](O)[C@@H](O)[C@@H]1O [WXD003] | 1013 | 14.5 | 2.56 | 2.94 | 47.7 | 391 | 797 | 1636.4**** mg/200 g, BW | 24.58 mL/200 gBW | 14.3 ± 2.28 | 15.7 ± 0.88 | 13.6 ± 1.40 | 13.3 ± 0.81 | 14.1 ± 1.28 | 10.1 ± 1.26 | 12.5 ± 1.23 | 14.4 ± 1.77 | 14.8 ± 2.34 | 19.9 ± 1.32 | 15.8 ± 1.48 | Fasting blood glucose (db/db mice [4]; [11]): 14.3 ± 1.29; Fasting blood glucose (db/db mice [4]; [12]): 17.4 ± 1.72; Fasting blood glucose (db/db mice [4]; [13]): 10.9 ± 1.42; Fasting blood glucose (db/db mice [4]; [14]): 11.7 ± 1.30; Fasting blood glucose (db/db mice [4]; [15]): 13.0 ± 1.36; OGTT blood glucose level AUC0-2 hr (db/db mice [5]): 2810 ± 155 mmol/L/min; HbA1c (%) (db/db mice [6]; [11]): 5.7*** %; Rate of Decline of HbA1c (%) (db/db mice [6]; [11]): −32%; HbA1c (%) (db/db mice [6]; [16]): 5.9**** %; Rate of Decline of HbA1c (%) (db/db mice [6]; [16]): −39% |
| CCc1ccc([C@@H]2O[C@H](SC)[C@@H](O)[C@H](O)[C@H]2O)cc1Cc1ccc(C2=CCC(F)(F)CC2)cc1 [WXD010] | 2320 | 8.06 | 4.5 | 2.48 | 56.4 | 356 | – | – | – | 16.7 ± 1.00 | 13.5 ± 2.46 | 14.1 ± 0.97 | 15.4 ± 1.34 | 13.2 ± 1.09 | 10.6 ± 1.48 | 9.8 ± 0.82 | 9.2 ± 0.68 | 14.7 ± 2.50 | 14.4 ± 1.47 | 15.8 ± 1.40 | OGTT blood glucose level AUC0-2 hr (SD rats [7]; glucose 2 g/kg): 720 mmol/L/min; Urine glucose level (SD rats [7]; urine 0-24 h): 2118.7**** mg/200 g, BW; Urine volume (SD rats [7]; urine 0-24 h): 20.0**** mL/200 g, BW; Fasting blood glucose (db/db mice [4]; [11]): 14.9 ± 1.24; Fasting blood glucose (db/db mice [4]; [12]): 15.9 ± 0.79; Fasting blood glucose (db/db mice [4]; [13]): 11.0 ± 1.67; Fasting blood glucose (db/db mice [4]; [14]): 9.6 ± 0.91; Fasting blood glucose (db/db mice [4]; [15]): 8.1 ± 0.51; OGTT blood glucose level AUC0-2 hr (db/db mice [5]): 2120 ± 99.2 mmol/L/min; HbA1c (%) (db/db mice [6]; [11]): 5.8*** %; Rate of Decline of HbA1c (%) (db/db mice [6]; [11]): −31%; HbA1c (%) (db/db mice [6]; [16]): 5.1**** %; Rate of Decline of HbA1c (%) (db/db mice [6]; [16]): −47% |
